Laboratory results as given in patent US10233198B2, “Pro-drugs of NSAIAs with very high skin and membranes penetration rates and their new medicinal uses” (Techfields Pharma Co., Ltd., priority 2007, dated 2019).

Assays:
[1] = tested on: SLAC/GK rats, type 2 diabetes; test: Blood glucose in type 2 diabetic rats, transdermal; format: in vivo; conditions: no fasting
Excerpt: (§1) The pro-drugs in this invention lower blood glucose levels in rat models (SLAC/GK, type 2 diabetes, n=7). 50% acetone solution of diethylaminoethyl acetylsalicylate.acetylsaficylic acid salt (P-1, in acetone); 4-acetamidophenyl salicylyldimethylaminobutyrate.HCl (P-6), diethylaminoethyl 5-(2,4-difluorophenyl) acetylsalicylate.5-(2,4-difluorophenyl) acetylsalicylic acid salt (P-8), diethylaminoethyl salicylsalicylate.AcOH (P-9), diethylaminoethyl salicylate.AcOH (P-10), diethylaminoethyl 5-acetamido-acetylsalicylate (P-58), diethylaminoethyl acetylsalicylsalicylate. acetylsalicylsalicylic acid salt (P-59), diethylaminoethyl acetylsalicylsalicylate. acetylsalicylsalicylsalicylic acid salt (P-60) (equal to of 20 mg/kg of NSAIAs) were administered transdermally to the backs (about 1.5 cm^2) of rats (fur was shaved) once per day (at 8 am) for 5 weeks. The blood glucose levels were measured once every 3 days at 4 pm (no fasting) from the second week to the fifth week. The blood lipid levels were measured at the end of the fifth week.

[2] = tested on: Chinese White rabbits; test: Autologous blood clot pulmonary embolism model, thrombus propagation; format: in vivo; conditions: 15 mg/kg topically on the back; after 2 days
Protocol: Eighteen Chinese White rabbits weighing between 3.0 and 3.5 kg (aged 6-7 months) were selected and divided into three groups (control, P-1 and […] groups, n=6). One hour before the experiment, thrombi were made by aspirating venous blood (1 ml) into a sterilized bottle to clot. To avoid fragmentation and slow lysis, the autologous blood clots were stabilized in temperature-controlled (70° C.) distilled water for 10 min. After anesthesia, the femoral veins were exposed and distally isolated, and autologous blood clots (0.05 g/kg) were injected through an indwelling catheter (20GA), which had been placed in the femoral vein isolated earlier. 50% acetone solution of diethylaminoethyl acetylsalicylate.acetylsalicylic acid salt (P-1, in acetone, 15 mg/kg) and diethylaminoethyl acetylsalicylsalicylate.acetylsalicylsalicylic acid salt (P-59, 15 mg/kg) were topically applied to the back of the rabbits. After 2 days, rabbits were euthanized with an excessive intravenous injection of sodium amobarbital (60 mg/kg). The lungs and hearts were isolated to observe whether thrombi were present in the pulmonary arteries. The lungs were immersed in 10% formalin for 24 h. Consecutive transverse sections along the obstructed pulmonary arteries were paraffin-embedded and stained with hematoxylin-eosine. […]

[3] = tested on: SLAC/GK rats, type 2 diabetes; test: Blood lipid levels in type 2 diabetic rats, transdermal; format: in vivo; conditions: end of fifth week; transdermal, equal to 20 mg/kg of NSAIAs once per day
Excerpt: as §1

[4] = tested on: normal rats; test: Blood glucose in normal rats, transdermal; format: in vivo; conditions: baseline of the treatment group; no fasting
[5] = tested on: SLAC:NOD-IDDM mice, type 1 diabetes; test: Blood glucose in type 1 diabetic mice, transdermal; format: in vivo; conditions: no fasting
Excerpt: The pro-drugs in this invention lower blood glucose levels in mouse models (SLAC:NOD-IDDM, type 1 diabetes, n=7). 20% acetone solution of diethylaminoethyl acetylsalicylate.acetylsalicylic acid salt (P-1, in acetone); 4-acetamidophenyl salicylyldimethylaminobutyrate.HCl (P-6), diethylaminoethyl 5-(2,4-difluorophenyl) acetylsalicylate.5-(2,4-difluorophenyl) acetylsalicylic acid salt (P-8), diethylaminoethyl salicylsalicylate.AcOH (P-9), diethylaminoethyl salicylate.AcOH (P-10), diethylaminoethyl 5-acetamido-acetylsalicylate (P-58), diethylaminoethyl acetylsalicylsalicylate. acetylsalicylsalicylic acid salt (P-59), diethylaminoethyl acetylsalicylsalicylate. acetylsalicylsalicylsalicylic acid salt (P-60) (equal to of 20 mg/kg of NSAIAs) were administered transdermally to the backs (about 1 cm^2) of mice (fur was shaved) once per day (at 8 am) for 7 weeks. The blood glucose levels were measured once every 3 days at 3 pm (no fasting) from the fourth week to the seventh week.

[6] = prodrug versus testosterone (TS); cited from earlier work
[7] = baseline of the treatment group

| Compound | Blood glucose, diabetic rats, Baseline [1, 7] [mmol/L] | Blood glucose, diabetic rats, Average ([1]; transdermal, equal to 20 mg/kg of NSAIAs once per day for 5 weeks, measured every 3 days, second to fifth week) [mmol/L] | Histology of lung tissue and vascular walls after clot injection [2] | Triglycerides, Average [3] [mmol/L] | Blood glucose, normal rats, Baseline [4] [mmol/L] | Blood glucose, type I diabetic mice, Baseline [5, 7] [mmol/L] | Blood glucose, type I diabetic mice, Average ([5]; transdermal, equal to 20 mg/kg of NSAIAs once per day for 7 weeks, fourth to seventh week) [mmol/L] | Diffusion through human skin, times faster than the drug (TS) itself [6] [times] |
| --- | --- | --- | --- | --- | --- | --- | --- | --- |
| CC(=O)Oc1ccccc1C(=O)Oc1ccccc1C(=O)O.CCN(CC)CCOC(=O)c1ccccc1OC(=O)c1ccccc1OC(C)=O [P-59, diethylaminoethyl acetylsalicylsalicylate. acetylsalicylsalicylic acid salt] | 16.3 ± 3 | 8.7 ± 1 | both lung tissue and vascular walls were normal | 2.9 ± 0.2 | 7.2 ± 1 | 24.3 ± 3 | 8.7 ± 1 |  |
| CN(C)CCCC(=O)O[C@H]1CC[C@H]2[C@@H]3CCC4=CC(=O)CC[C@]4(C)[C@H]3CC[C@]12C.Cl [TSBH, testosteronyl-4-dimethylaminobutyrate.HCl] |  |  |  |  |  |  |  | ~60 |
